Data on 4 compounds can be found in patent US9187448B2, “Flavonoid compounds” (CARDERO THERAPEUTICS, INC., priority 2011, dated 2015).

Series [1] has as its system mitochondrial complex proteins (MCP) I and V. As to the kind of experiment: Western blot of mitochondrial complex proteins (MCP) in coronary artery endothelial cells. Format: cell-based, human (HCAEC) or bovine (BCAEC). The note with it: HCAEC or BCAEC, Western blot band intensity; results shown in FIG. 2. On the procedure:
The effect of (−)-epicatechin analogs on mitochondrial complex proteins (MCP) I and V was studied human (HCAEC) or bovine (BCAEC) Coronary Artery Endothelial cells. Western blots were performed as follows: Approximately 50 mg of cells were homogenized with a polytron in 500 μl lysis buffer (1% triton X-100, 20 mM Tris, 140 mM NaCl, 2 mM EDTA, and 0.1% SDS) with protease and phosphatase inhibitor cocktails (P2714 and P2850, Sigma-Aldrich, St. Louis, Mo.) supplemented with 0.15 mM PMSF, 5 mM Na3VO4 and 3 mM NaF. Homogenates were passed through an insulin syringe five times, sonicated for 30 min at 4° C. and centrifuged (12,000 g) for 10 min. The total protein content was measured in the supernatant using the Bradford method. A total of 40 μg of protein was loaded onto a 4%-15% precast TGX polyacrylamide gel (Bio-rad), electrotransferred (12 V, 50 minutes), incubated for 1 h in blocking solution (5% nonfat dry milk in TBS plus 0.1% Tween 20 [TBS-T]). Blots were probed with a cocktail of monoclonal antibodies to electron transport chain proteins (OXPHOS) (20 KDa subunit of complex I, 26 KDa subunit of complex IV, subunit core 2 of complex III, 30 Kda complex II and ATP synthase 54 Kda complex V). […] The band intensities were digitally quantified using ImageJ software (http://www.nih.gov).

For series [2] the following is noted: rat; cited from earlier work.
In another series the target is T1, MRP2 efflux transporter (Homo sapiens, UniProt Q92887).
T1 construct: In a study of enterocyte absorption using human intestinal Caco-2 cells; endogenous in cells; host or cells: Caco-2
T1 sequence (Q92887 whole entry): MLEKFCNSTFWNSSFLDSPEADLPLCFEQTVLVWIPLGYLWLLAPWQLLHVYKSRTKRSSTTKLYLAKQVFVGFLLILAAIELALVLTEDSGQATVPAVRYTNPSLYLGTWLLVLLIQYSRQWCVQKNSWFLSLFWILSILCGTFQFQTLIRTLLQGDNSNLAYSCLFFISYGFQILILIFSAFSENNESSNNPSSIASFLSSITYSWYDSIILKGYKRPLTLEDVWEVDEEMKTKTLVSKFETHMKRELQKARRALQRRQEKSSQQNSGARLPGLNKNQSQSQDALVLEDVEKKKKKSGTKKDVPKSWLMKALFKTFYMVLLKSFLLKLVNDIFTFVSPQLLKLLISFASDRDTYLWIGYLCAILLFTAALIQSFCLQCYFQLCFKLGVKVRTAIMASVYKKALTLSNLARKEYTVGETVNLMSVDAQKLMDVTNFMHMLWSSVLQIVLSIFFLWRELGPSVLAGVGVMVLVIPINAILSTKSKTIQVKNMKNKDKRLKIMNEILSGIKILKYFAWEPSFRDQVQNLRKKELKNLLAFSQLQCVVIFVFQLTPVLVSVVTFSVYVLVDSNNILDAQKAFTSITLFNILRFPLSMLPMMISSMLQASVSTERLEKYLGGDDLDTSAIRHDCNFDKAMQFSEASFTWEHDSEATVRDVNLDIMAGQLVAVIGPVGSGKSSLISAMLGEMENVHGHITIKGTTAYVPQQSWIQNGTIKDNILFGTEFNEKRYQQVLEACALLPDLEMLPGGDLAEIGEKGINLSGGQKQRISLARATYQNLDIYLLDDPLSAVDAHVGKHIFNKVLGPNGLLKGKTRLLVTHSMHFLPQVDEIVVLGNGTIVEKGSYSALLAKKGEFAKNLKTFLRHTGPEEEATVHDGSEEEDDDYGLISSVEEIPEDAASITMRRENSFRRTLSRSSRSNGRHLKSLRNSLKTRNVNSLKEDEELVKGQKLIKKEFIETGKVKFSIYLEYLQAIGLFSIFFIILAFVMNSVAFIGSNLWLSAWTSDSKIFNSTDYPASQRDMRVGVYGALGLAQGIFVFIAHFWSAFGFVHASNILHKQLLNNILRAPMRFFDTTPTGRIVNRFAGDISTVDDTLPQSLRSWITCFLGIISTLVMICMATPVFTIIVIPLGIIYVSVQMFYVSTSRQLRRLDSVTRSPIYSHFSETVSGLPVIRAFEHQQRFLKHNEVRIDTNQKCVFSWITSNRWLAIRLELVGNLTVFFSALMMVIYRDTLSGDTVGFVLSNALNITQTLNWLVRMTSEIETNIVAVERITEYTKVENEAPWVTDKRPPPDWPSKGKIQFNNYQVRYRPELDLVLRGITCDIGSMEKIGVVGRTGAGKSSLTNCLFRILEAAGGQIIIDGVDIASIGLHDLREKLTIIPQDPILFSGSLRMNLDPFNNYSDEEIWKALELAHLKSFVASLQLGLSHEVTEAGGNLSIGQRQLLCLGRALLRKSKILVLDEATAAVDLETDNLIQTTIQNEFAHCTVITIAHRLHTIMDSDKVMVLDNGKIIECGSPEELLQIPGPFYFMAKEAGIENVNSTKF
Conditions: human intestinal Caco-2 cells; cited from earlier work.

For series [3] the following is noted: humans, ingested in chocolate; cited from earlier work.

Take `COc1cc(OC)c2c(c1)O[C@H](c1ccc(O)c(O)c1)[C@H](O)C2` [5,7-dimethyl substituted (−)-epicatechin]: in series [1], the “effect on MCP (activity/potency) relative to (−)-epicatechin” value is “less potent than the unsubstituted parent”.

In the case of `Oc1cc(O)c2c(c1)O[C@H](c1ccc(O)c(O)c1)[C@@H](O)C2` [(+)-catechin], the “effect on absorption of (−)-epicatechin” value in series [2] is on record as “inhibited”.

With `Oc1cc(O)c2c(c1)O[C@H](c1ccc(O)c(O)c1)[C@H](O)C2` [(−)-epicatechin, (2R,3R)-2-(3,4-dihydroxyphenyl)chroman-3,5,7-triol], the “efflux transporter substrate status” value at MRP2 efflux transporter is given as “substrate of the MRP2 efflux transporter”. For the same compound, the fraction absorbed entry in series [3] was “approximately 30%”.

With `CN(C)C(=O)CCSC(SCCC(=O)O)c1cccc(/C=C/c2ccc3ccc(Cl)cc3n2)c1` (centres unmarked) [MK-571], the “effect of MRP2 inhibition on absorption of (−)-epicatechin” value at MRP2 efflux transporter is given as “increased absorption of (−)-epicatechin somewhat”.
